Reference: patent US6716596B2, “Agents for replacement of NAD+/NADH system in enzymatic reactions” (The Regents of the University of California, priority 2001, dated 2004)

Legend:
[1] = water solubility of biomimics
[2] = biological target: T1, horse liver alcohol dehydrogenase (HLADH) (Equus caballus, UniProt P00327); experiment: HLADH enzymatic chiral reduction of ketones with biomimic co-factor regeneration; type: biochemical; conditions: for turnover frequency of chiral ketone reduction: ketone (12) reduced by HLADH with co-factor regeneration, 24 hours
T1 construct: purchased Sigma
T1 sequence (P00327 2-375 limits assumed): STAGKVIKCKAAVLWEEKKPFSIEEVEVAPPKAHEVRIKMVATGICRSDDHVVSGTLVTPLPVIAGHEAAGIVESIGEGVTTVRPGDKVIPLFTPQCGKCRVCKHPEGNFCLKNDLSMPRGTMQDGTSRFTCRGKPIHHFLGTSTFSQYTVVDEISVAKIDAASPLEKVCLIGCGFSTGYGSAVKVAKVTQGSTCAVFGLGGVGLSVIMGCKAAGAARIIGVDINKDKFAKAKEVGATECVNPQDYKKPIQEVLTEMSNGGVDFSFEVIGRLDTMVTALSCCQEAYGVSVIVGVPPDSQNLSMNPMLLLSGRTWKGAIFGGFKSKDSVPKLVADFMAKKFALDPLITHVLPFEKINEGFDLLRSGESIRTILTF
Method: FIG. 7 presents structures of ketone substrates 12-15 used for biomimic chiral synthesis of corresponding alcohols. Conversion of the substrates 12-15 to their corresponding alcohols are expressed in % yield, and TOF in d^−1 and S-enantiomer excess (ee) are also shown for each conversion. Corresponding values obtained with NAD^+ are given in parenthesis. The S-enantiomeric excess (ee) was determined by GLC with a modified β-cyclodextrin capillary column.
(§1) [Cp*Rh(bpy)(H2O)]OTf2 (1.9 mg, 2.61×10^−3 mmol), sodium formate (17.8 mg, 261.69×10^−3 mmol), NAD^+ (8.1 mg, 11.23×10^−3 mmol) and HLADH (10 units) were placed in a 10 mL Schlenk flask, and Schlenk techniques were followed to deoxygenate the solid mixture.
(§2) Under positive argon pressure, 5 mL of potassium phosphate buffer (100 mM, pH=7.02, deoxygenated) and carbonyl substrate (83.58×10^−3 mmol, deoxygenated) were added via syringe. The reaction flask was immediately securely capped with a glass-stopper and shaken with a shaker in 30° C. water-bath. The reaction was monitored by gas chromatography (GC), equipped with a β-cyclodextrin column (Supelco, β-DEX-225), and the products were identified by comparing the retention time with the corresponding authentic chiral samples and were confirmed by GC-MS. The enantiomeric excess of the products was determined directly by their relative area in the chromatogram. The progress of the reaction was obtained by mixing the reaction aliquot with an internal standard (cyclohexanol in phosphate buffer), and then calibrating the measured relative area in the chromatogram with their corresponding response factors. The reaction was monitored for 24 hours.
The same procedure as described in section A was followed, except that NAD^+ was substituted with any one of the biomimic compounds of the invention.

[3] = biological target: T1, horse liver alcohol dehydrogenase (HLADH); experiment: biomimetic reduction of norcamphor (racemic); type: biochemical; conditions: for exo/endo alcohols formed from norcamphor enantiomer: reaction with the biomimics of the invention
Method: Biomimic yield expressed in equivalent was 86% corresponding to NAD^+ yield of 94% under the same conditions.
as §1, §2
The procedure described in section A is equally applicable to reduction of racemic compounds such as norcamphor, seen in FIG. 8. The method requires the following modification. Due to the sublimation of norcamphor in vacuo, the addition of norcamphor was conducted under positive argon pressure, followed by the addition of phosphate buffer via syringe.

[4] = UV-vis kinetics of the regioselective reduction with rhodium catalyst precursor (2) and formate; conditions: for TOF / ri initial rate: 294° K, H2O at pH 6.54, substrate 1.55 × 10^−3 M; for ri initial rate: average of two runs; for initial rate, times higher than compound (1) in THF/H2O (1:1): acqueous medium, comparable concentrations
Excerpt: The kinetics of the regioselective reduction reactions were further studied utilizing UV-vis techniques with the two biomimic compounds (1) and (6) and the results were compared to NAD^+ itself. Experimental conditions are described in Example 9.
The effect of the initial rate (ri) at low conversions to the 1,4-dihydro product (˜10%) was ascertained by varying the amount of substrate precatalyst (2) and sodium formate concentrations.
The initial rates (ri) of formation of compound (3) were obtained from plots of concentration (absorbance at 354 nm/ε) versus time at low conversions (˜10%). The values of kcat were calculated at 299° K.
Rates were obtained via UV-vis techniques and are an average of two runs.
This example describes studies producing kinetic and thermodynamic data for 1-benzylnicotinamide triflate (1a) performed in THF/H2O, 1:1, β-nicotinamide -5′-ribose methyl phosphate (6) H2O, pH=6.5, and NAD^+ performed in the regioselective reduction with [Cp*Rh(bpy)H2O)][OTf]2, 2 and in the presence of formate ion.
The kinetic experiments were carried out on a Hewlett Packard 8452A Diode Array Uv-Vis spectrophotometer, attached to a circulating water bath (VWR 1160). For experiments conducted at different temperatures, the circulating water bath, as well as the UV-vis instrument, were warmed up for at least an 1 hour before the kinic studies were initiated.
The 1-benzylnicotinamide triflate (1a) [CP*Rh(bpy)(H2O)][OTf]2 (2) and 1-benzyl-1,4 dihydronicotinamide (3) were synthesized by methods as described in Examples 2, 4 and 7. The NAD^+ and 1,4-NADH compounds were purchased from Sigma and used as received. The THF was distilled from Na and deoxygenate with N2 gas for 1 hour. Distilled water was purchased from Aldrich Chemical Co and deoxygenate prior to being used. A solution of THF/H2O (similar for 1:1 or 1:4 ratios) was used for all the kinetic experiments performed for compounds of 1-benzylnicotinamide type, unless otherwise specified. A stock solution of biomimic (1a) (0.018 M), 2 (6.23×10^−3 M), and sodium formate (0.25 M) were made for the kinetic experiments in THF/H2O (1:1).
A solution of 1-benzylnicotinamide triflate (1a), (4.29×10^−3 M) and sodium formate (0.0539) was made in a volumetric flask (10 mL) under N2 in a THF/H2O (1:1) mixture. The different concentration of biomimic (1a) and sodium formate used for the kinetic experiments are reported above.
A 3.0 mL aliquot of this solution was transferred to a thermostated UV-vis cell by using an air-free syringe, which was also purged with N2 gas. The sample was then brought to the desired temperature for 30-60 min in the UV-vis spectrophotometer thermostated cell holder. Then, 23 μL of a 6.23×10^−3 M stock solution of [CP*Rh(bpy)(H2O)^2+ (2), was added-by syringe under a positive N2 pressure, quickly mixed with the solution, and the absorbance increase at 354 nm was immediately recorded. The experiment was carried out for 2 hours and the formation of the product, 1-benzyl-1,4-dihydronicotinamide, (3) was followed, with the change in absorbance being recorded every 90 seconds. Some kinetic experiments were carried out until all the starting material was converted to product. The induced volume change was taken into account for the calculation of the turnover frequency (TOF).
The kinetic experiments for the β-nicotinamide-5′-ribose methyl phosphate (6) and natural NAD^+ were performed using the same general procedure described above. These kinetic experiments were carried out in H2O and the concentration of β-nicotinamide-5′-ribose methyl phosphate (6) or NAD^+, sodium formate, and [Cp*Rh(bpy)(H2O)]^2+ (2), were in the order of 1.50×10^−3, 0.0186 M, and 1.42×10^−5 M, respectively. The λmax for the β-nicotinamide-5′-ribose methyl phosphate, (6), and natural NAD^+ was 336 nm. In all the initial rate plots, time =0 s was removed from the plots of Concentration versus Time. The standard deviation of the ri were calculated from 2σ values.

[5] = stability observations (light, air, solvent); type: physicochemical
[6] = regioselective reduction of biomimics with catalyst precursor (2) and sodium formate, followed by 1H NMR; conditions: for turnover frequency (TOF) in the regioselective reduction: reduction to 1,4-dihydro derivative, NAD+ under the same conditions
Method: The relative rates, seen tabulated in FIG. 1C, were determined by observing disappearance of the pyridinium signals versus an internal standard, [(CH3)4N]OTf (tetramethylammonium triflate), during the first 2 hours, where the relative rate of 1-benzylnicotinamide triflate (1) was set to 1.0. The turnover frequencies were calculated by the formation of mmol of product/mmol of catalyst/hour. The total turnover number in 24 hours was ˜95 for all substrates that gave product. The reactions were conducted in presilylated J. Young NMR tubes and were followed by ^1H NMR.
The electronic effect of differently substituted nicotinamide substrates was determined by their relative rates. The relative rates of these compounds were determined by observing the disappearance of the pyridinium signals compared to interval standard, [(CH3)4N]OTf, during the first 2 hours, where the relative rate of compound (1a) was 1.0.
In a typical reaction, a J. Young NMR tube was charged, biomimic substrates (1a)-(1i) (1.0 mol), 2 (1% mol), and HCO2Na (1.1 mol) used as the hydride source and a Schlenk techniques were conducted to deoxygenate the solid mixture. A diluted solvent was added to these solids for compounds (1a)-(1i), the solvent was D2O-THF-d8 (1=1 0.75 mL, deoxygenated), and the NMR tube was placed in a liquid nitrogen bath. The contents were further degassed by two successive freeze-pump-thaw cycles. After thawing out the reaction mixture, the J. Young NMR tube was immediately put in a salted ice-bath and covered with aluminum foil. The reaction was then followed by ^1H NMR spectroscopy at 26° C. temperature, after a speedy thawing out.
The given relative rates and turnover frequencies were determined by decreasing integration of the corresponding pyridinium salts measured against an internal standard, (CH3)4N(OTf), during the first 2 h of the reaction. The ratios of the 1,4- and 1,6-dihydronicotinamide derivatives of compounds (1a), (1b) and (1d)-(1g) were obtained by comparison of the resonance signals with those of authentic samples, where the diagnostic signal is the resonance for —CH2Ph moiety which can be identified unambiguously in the ^1H NMR spectrum.

| water solubility [1] | recognition by HLADH as hydride catalyst of the chiral conversion [2] | turnover frequency of chiral ketone reduction [2] [day⁻¹] | Structure (SMILES) | exo/endo alcohols formed from norcamphor enantiomer [3] | TOF [4] [h⁻¹] | ri initial rate [4] [M/s] | initial rate, times higher than compound (1) in THF/H2O (1:1) [4] [times] | turnover frequency (TOF) in the regioselective reduction [6] [h⁻¹] | other results |
| --- | --- | --- | --- | --- | --- | --- | --- | --- | --- |
| completely water soluble | recognizes | – | COP(=O)(O)OC[C@H]1O[C@@H](N2C=CCC(C(N)=O)=C2)[C@H](O)[C@@H]1O [Compound 7, β-1,4-dihydronicotinamide ribose-5′-methyl phosphate] | – | – | – | – | – | – |
| – | recognizes | ~30 | COP(=O)([O-])OC[C@H]1O[C@@H]([n+]2cccc(C(N)=O)c2)[C@H](O)[C@@H]1O [Compound 6, β-nicotinamide ribose-5′-methyl phosphate] | – | 7 | 2.82e-08 | ~3 | 20 | stability [5]: light-sensitive and somewhat air-sensitive; TOF, times higher than those of compounds (1a)-(1i) [6]: approximately 2.5 times; TOF, times higher than 1-benzylnicotinamide ([6]; in water vs 1-benzylnicotinamide in THF/water): about 2.5 times |
| – | – | ~30 | NC(=O)C1=CN([C@@H]2O[C@H](COP(=O)(O)OP(=O)(O)OC[C@H]3O[C@@H](n4cnc5c(N)ncnc54)[C@H](O)[C@@H]3O)[C@@H](O)[C@H]2O)C=CC1 [NAD^+, β-Nicotinamide adenine dinucleotide, reference compound] | – | 9 | 3.1e-08 | ~3 | 18 | yield of norcamphor reduction expressed in equivalent ([3]; racemic norcamphor, same conditions for NAD^+): 94% |

Second part, the molecule before the results:

| Structure (SMILES) | water solubility [1] | recognition by HLADH as hydride catalyst of the chiral conversion [2] | turnover frequency of chiral ketone reduction [2] [day⁻¹] | exo/endo alcohols formed from norcamphor enantiomer [3] | TOF [4] [h⁻¹] | ri initial rate [4] [M/s] | initial rate, times higher than compound (1) in THF/H2O (1:1) [4] [times] | turnover frequency (TOF) in the regioselective reduction [6] [h⁻¹] | other results |
| --- | --- | --- | --- | --- | --- | --- | --- | --- | --- |
| O=C1CC2CC[C@H]1C2 (racemic) [Compound 17, norcamphor] | – | – | – | approximately equal mixture of exo and endo alcohols | – | – | – | – | – |
| C=CC(=O)OCCOCCOCC(=O)[n+]1cccc(C(N)=O)c1.[Br-] [Compound 10, 1-(8-acryloyloxy-3,6-dioxaoctanoyl)-3-carbamoylpyridinium bromide] | both water and organic solvent soluble | – | – | – | – | – | – | – | – |
| O=C1CC2CC[C@H]1C2 (racemic) [Compound 16, norcamphor] | – | – | – | exclusively the endo alcohol | – | – | – | – | – |
